Source: patent US6069132A, “Phosphazole compounds” (priority 1997, dated 2000)
Converted amounts (≈) assume the structure as drawn. “Also recorded” adds a separate entry of the source. Where two headings read alike, the source gives them in different places.

Tests used:
THP-1 cells = experiment: Cytotoxicity on growing THP-1 cells (MTS assay); type: cell-based, human; conditions: 4 days (FIG. 1A)
Protocol: Cytotoxicity Analysis. The cytotoxicity of the compounds were assayed using the CellTiter 96™ Aqueous Non-Radioactive Cell Proliferation (MTS) Assay kit obtained from Promega (Madison, Wis.) following the instructions provided by the supplier. The viable cell number was determined by trypan blue staining and cells (THP-1) were resuspended in PRMI supplemented with 10% FBS (GIBCO). Eighty microliters of cell suspension (1.7×10^4cells/well) was dispensed onto a 96-well microtiter plates. At this time 20 μL of drug (or control) was added to appropriate wells. Each concentration was assayed in quadruplicate. The plates were incubated at 37° C. in a humidified 5% CO2 atmosphere for 4 days and MTS assay […] for each concentration and the data obtained was used to calculate TC50 (the concentration of the compound necessary to inhibit the cell growth by 50%) for each compound.

[1] = Cytotoxicity on static MRC-5 cells; type: cell-based; conditions: human, Table 4, 50% cell death (static cells), read-out: TC50 Static MRC-5
Protocol: Cell Culture. Vero (African Green Monkey kidney cells) and MRC-5 (diploid Human Embryonic Lung fibroblasts) cells were obtained from the American Type Culture Collection (ATCC) and were grown in minimal essential medium (MEM) with Earl's salts and glutamine (GIBCO BRL, Life Technologies, Inc.) with 10% heat inactivated fetal bovine serum (GIBCO BRL) and penicillin (100 μg/mL)/streptomycin (100 μg/mL).
Cytotoxicity Analysis. The cytotoxicity of the compound was assayed using few the CellTiter 96™ Aqueous Non-Radioactive Cell Proliferation (MTS) Assay (Promega). Briefly, viable cell number was determined by trypan blue staining and cells (MRC-5 and Vero) were resuspended in minimal essential medium (MEM) supplemented with 10% FBS (GIBCO). Eighty microliters of cell suspension (1.7×10^4 cells/well) was dispensed onto a 96-well microtiter plates. At this time 20 μL of drug (or control) was added to appropriate wells. Each concentration was assayed in quadruplicate. The plates were incubated at 37° C. in a humidified 5% CO2 atmosphere for 4 days and MTS assay was performed according to the manufacturer's instructions. The average absorbence of the sample was graphed for each concentration and the data obtained was used to calculate TC50 (the concentration necessary to give one-half maximum growth) for each compound.

IL-1β = experiment: Inhibition of IL-1β production in LPS-stimulated THP-1 cells (ELISA); type: cell-based, human; conditions: for IC50: Homo sapiens
Protocol: Cell line. THP-1 cells (human monocyte) were maintained in RPMI 1640 medium containing 25 mM Hepes buffer, 2 mM L-glutamine, 50 units of penicillin per mL, 50 μg of streptomycin sulfate per mL, and 10% heat-inactivated fetal bovine serum (FBS) in a humidified incubator containing 5% CO2. The cells were split 1:4 weekly as recommended by the American Type Culture Collection (ATCC).
TNFα assay. Varying concentrations of the test compound or control compound were added to THP-1 cells plated at a density of 1×10^6cells/mL in 600 μL of 10% RPMI in a 48 well plate. After one hour the cells were stimulated with 0.5 μg of lipopolysaccharide (LPS; Sigma, lot number 43H40491) per mL. Six hours post-stimulation supernatants were collected and assayed for TNFα or IL-1β production using a commercially available cytokine detection ELISA (Enzyme Linked Immunosorbent Assay) kit according to the suppliers instructions. A suitable assay kit may be obtained from Biosource, or R and D systems. A novel xanthine analog, HWA-3138, having the structure (as shown below) was used as the control compound (30) in this study to monitor the response of the THP-l cells. Xanthine analogs are known inhibitors of TNFα but not IL-1β. In the following experiments compound HWA-3138 was used as a positive control. [drawing 58] […]
THP-1 cells were cultured and IL-1β inhibition assays were conducted as described for TNFα in Example 46, except a commercially available IL-1β assay kit, obtained from R and D Systems, Minneapolis, Minn., was used instead of the TNFα kit.
With reference now to FIG. 8, for each concentration of T70241 tested, the membrane bound IL-1β was separated from the IL-1β found free in the culture medium at 6 hours post-LPS stimulation as described in Example 46 for TNFα, and the percent inhibition of each fraction was graphed.

MRC-5 cells = experiment: Cytotoxicity on growing MRC-5 cells (MTS); type: cell-based, human
[2] = tested on: adenosine deaminase (ADA); experiment: Enzymatic hydrolysis by adenosine deaminase; type: in vitro ADME, calf
Protocol: Adenosine deaminase (ADA, adenosine aminohydrolase, EC 3.5.4.4, SIGMA) from calf intestinal mucosa was prepared to give a stock of 1 mg/mL (250-280 units/mL) in pH 7.4, 0.01 M phosphate buffer. The relative rates of hydrolysis of selected compounds by ADA and characterization of the products was carried as follows. […] Fifty-microliter aliquots were taken at time intervals and hydrolysis was quenched by mixing with 0.45 mL of distilled water and then the diluted sample was heated at 95° C. for 6 min to ensure enxyme deactivation. The decrease in substrate concentration and the formation of the products was followed over time by UV-spectroscopic analysis. Adenosine was used as a control in this experiment and one unit is defined as the amount of ADA that hydrolyzes 1.0 μmol of adenosine/min at 25° C.

PBMCs = experiment: Viability of PBMCs exposed to test compound; type: cell-based, human; conditions: 48 hours of exposure
[3] = Viability of PBMCs exposed to test compound; type: cell-based, human; conditions: human, pbmcs, 48 h, +LPS, read-out: % Viable Cells
HSV-2 = HSV-2 CPE assay in Vero cells; type: cell-based; conditions: Human alphaherpesvirus 2, Vero; Table 4
[4] = Table 2, LPS-stimulated THP-1, 6 h post-stimulation, read-out: IC50 IL-1β in THP-1 cells

## Nc1ncnc2pc[nH]c12 (centres unmarked) [T70241, 7-amino-1H-1,3-azaphospholo[4,5-d]pyrimidine]
THP-1 cells; higher concentrations
  effect on THP-1 growth: stimulates THP-1 growth at higher concentrations
THP-1 cells; up to 1 mg/mL
  toxic effect on THP-1 cells: no toxic effect on the THP-1 cells
[1]
  CC50 at 96 h: > 50 µg/mL
IL-1β; 50 to 100 μg/mL, THP-1 (FIG. 6)
  inhibition of IL-1β production: able to inhibit IL-1β production
IL-1β; 6 hours post-LPS (FIG. 8)
  cell-associated and free IL-1β: reduce both the cell-associated (intracelluar) and the free (extracellular) IL-1β
IL-1β; [4]
  IC50: 16.1 µg/mL (≈ 106 µM)
IL-1β; from FIG. 6, LPS-stimulated THP-1, read-out: IC50, IL-1β production
  IC50: 38.8 µg/mL (≈ 255 µM)
MRC-5 cells; FIG. 9A, four day period
  toxic effect on growing MRC-5 cells: slight toxic effect on growing MRC-5 cells
MRC-5 cells; Table 4, 50% inhibition of logphase growing cells, 5760 min
  TC50 Growing MRC-5: > 50 µg/mL
[2]
  ADA substrate: not a substrate for ADA
[2]; up to 5 hours in presence of ADA
  hydrolysis by ADA: UV spectra: remained unchanged
PBMCs
  PBMC viability / toxicity: cell viability was not affected; also recorded: minimal
[3]; 10 μg/ml
  viability at 48 h: 104%
[3]; 50 μg/ml
  viability at 48 h: 83%
[3]; 100 μg/ml
  viability at 48 h: 94%
[3]; 250 μg/ml
  viability at 48 h: 88%
HSV-2
  IC50: > 50 µg/mL

## CCCCCn1cpc2ncnc(N)c21 (centres unmarked) [T70254, 7-Amino-1-(n-pentyl)-1,3-azaphospholo[4,5-d]pyrimidine]
[1]
  CC50 at 96 h: 9.25 µg/mL (≈ 41.6 µM)
IL-1β; [4]
  IC50: 152 µg/mL (≈ 686 µM)
HSV-2
  IC50: > 50 µg/mL
